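Tested at 5 concentrations; 48 h exposure; 96-well plates; endpoints linearly interpolated, else capped at highest concentration. Abbreviation: GI50, concentration required for 50% inhibition of growth. TGI: total growth inhibition.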

Assay in all cases: NCI tumour cell line growth inhibition, 48 h
The test system of assay [1] is SK-MEL-28 melanoma.
For assay [2], the system named is 786-0 renal.
For assay [3], the system named is SF-268 CNS.
Assay [4] has as its system A498 renal.
The subject of assay [5] is KM12 colon.
Assay [6] concerns SK-OV-3 ovarian.
The test system of assay [7] is U251 CNS.
Assay [8] has as its system UACC-62 melanoma.
The test system of assay [9] is K-562 leukemia.
The test system of assay [10] is HOP-92 NSCLC.

`C=C1CC(C/C=C(\C)CC2CC(=C)C(=O)O2)OC1=O` (stereo not given): the TGI in assay [1], in assay [2], in [3], in assay [4], in assay [5] and in assay [6] was > 100 µM in each case. In addition, the TGI in assay [7], in assay [8], in assay [9] and in assay [10] was > 100 µM in each case.
Regarding `COc1cc2c3c(c1O)C1(C=CC(=O)C=C1)CC3N(C)CC2` (stereo not given), the TGI in [1] is 26 µM; in assay [2], 15.6 µM; in [3], 34.6 µM; in assay [4], 48.4 µM; in assay [5], 17.5 µM; in assay [6], > 100 µM. Besides, the TGI in [7] is 15.4 µM; in assay [8] it was 23.1 µM; in assay [9], > 100 µM; in [10], 24 µM.
For the molecule `N#C/C(=C\c1ccc(O)cc1O)C(N)=O`, the TGI in assay [1], in [2], in assay [3], in assay [4], in assay [5] and in assay [6] was > 100 µM in each case. Also, the TGI in assay [7], in [8], in assay [9] and in [10] was > 100 µM throughout.
Turning to `C/C(=N\Nc1cccc(Cl)n1)c1ccccn1`, the GI50 in assay [1] was 1.65 µM; in assay [2], 0.671 µM; in assay [3], 0.673 µM; in assay [4] it was 1.41 µM; in [5], 0.548 µM; in assay [6] it was 1.08 µM. The GI50 in assay [7] is 0.582 µM; in assay [8], 1.22 µM; in assay [9] it was 0.574 µM; in [10], 1.32 µM. Moreover, the TGI was > 100 µM in assay [1]; 17.5 µM in assay [2]; 15.2 µM in assay [3]; 4.87 µM in assay [4]; > 100 µM in [5]; > 43.2 µM in assay [6]. For the same molecule, the TGI was > 100 µM in [7], 4.93 µM in assay [8], > 100 µM in [9] and 21.1 µM in [10].
Regarding `CCC[CH2][Sn]1([CH2]CCC)[O]C(=O)c2cc(C)ccc2[O]1`, the GI50 in [1] was 0.682 µM; in assay [2], 0.215 µM; in assay [3] it was 0.268 µM; in assay [4], 0.565 µM; in assay [5] it was 1.15 µM; in [6], 1.58 µM. Further, the GI50 in assay [7] is 0.462 µM; in [8], 0.465 µM; in assay [9], 0.222 µM; in [10], 0.327 µM. The TGI worked out at 2.03 µM in assay [1]; 0.844 µM in [2]; 0.959 µM in assay [3]; 1.79 µM in [4]; 2.7 µM in [5]; 2.99 µM in assay [6]. The TGI in assay [7] was 1.54 µM; in [8], 1.56 µM; in assay [9], 1.16 µM; in assay [10], 1.65 µM.
`COc1ccc(NC(=O)O[C@H]2[C@H](O[C@H]3[C@@H](O)COC(O[C@H]4C[C@H]5[C@@H]6CC=C7C[C@@H](O)CC[C@]7(C)[C@H]6CC[C@]5(C)[C@H]4[C@H](C)C(=O)CCC(C)C)[C@@H]3OC(C)=O)OC[C@@H](O)[C@@H]2O)cc1` (stereo not given in full): the GI50 in [1] was < 0.01 µM; in assay [2] it was < 0.01 µM; in [3], < 0.01 µM; in assay [4] it was < 0.01 µM; in assay [5] it was 0.0323 µM; in assay [6], 0.015 µM. Further, the GI50 in assay [7], in assay [8], in [9] and in [10] was < 0.01 µM in each case. Also, the TGI in assay [1] is 0.0127 µM; in [2] it was 11.3 µM; in assay [3] it was 2.76 µM; in assay [4] it was < 0.01 µM; in assay [5] it was 16.4 µM; in assay [6], 3.71 µM. In addition, the TGI in assay [7] is 12.2 µM; in assay [8], < 0.01 µM; in [9], 19.6 µM; in [10] it was 2.03 µM.
Take `ClC1=C(Cl)C(Cl)=C(Cl)C1=Cc1ccc(Cl)cc1`: the GI50 was 1.4 µM in [1]; 0.604 µM in [2]; 0.419 µM in assay [3]; 1.6 µM in [4]; 0.844 µM in assay [5]; 1.64 µM in assay [6]. For the same molecule, the GI50 in [7] is 0.344 µM; in assay [8], 0.363 µM; in assay [9] it was 0.388 µM; in assay [10], 1.53 µM. In addition, the TGI in assay [1] was 2.8 µM; in assay [2] it was 1.64 µM; in assay [3], 1.1 µM; in assay [4], 3.17 µM; in assay [5], 2.38 µM; in [6], 3.55 µM. Besides, the TGI in assay [7] was 1.23 µM; in [8] it was 1.65 µM; in assay [9], 4.1 µM; in assay [10], 3.84 µM.

These data come from PubChem BioAssay (NCI).
